Laboratory results taken from patent US20030199692A1, “Propanoic acid derivatives that inhibit the binding of integrins to their receptors” (priority 1999, published 2003).

Biological target: T1, α4β1 integrin (Homo sapiens, UniProt P05556+P13612)
T1 construct: endogenous in cells; host or cells: Ramos cells
Assay: Inhibition of adhesion of calcein AM-labeled Ramos cells to CS1 (fibronectin) peptide-conjugated ovalbumin
Type: cell-based
Settings: for inhibition at 100 µM: Ramos, compound at a concentration of 100 μM, read-out: % A (percent inhibition of cell adhesion); for IC50: Ramos cell adhesion to CS1-conjugated ovalbumin, 30 minutes at 37° C.
Experimental: The ability of compounds of the present invention to inhibit binding is determined by a procedure in which a 26-amino acid peptide containing the CS1 sequence of fibronectin with an N-terminal Cys ([…]) was coupled to maleimide activated ovalbumin. Bovine serum albumin (BSA) and CS1 conjugated ovalbumin were coated onto 96-well polystyrene plates at 0.5 mg/ml in TBS (50 mM Tris, pH 7.5; 150 mM NaCl) at 4° C. for 16 hours. The plates were washed three times with TBS and blocked with TBS containing 3% BSA at room temperature for 4 hours. Blocked plates were washed three times in binding buffer (TBS; 1 mM MgCl2; 1 mM CaCl2; 1 mM MnCl2) prior to assay. Ramos cells fluorescently labeled with calcein AM were resuspended in binding buffer (10^7 cells/ml) and diluted 1:2 with same buffer with or without compound. The cells were added immediately to the wells (2.5×10^5 cells/well) and incubated for 30 minutes at 37° C. Following three washes with binding buffer, adherent cells were lysed and quantitated using a fluorometer. IC50 is defined as the dose required to give 50% inhibition. MS in Table 3 stands for Mass Spec. nd stands for not determined in the Tables. A stands for inhibition in Table 2, and the percent inhibition indicates the inhibition of cell adhesion when compound is included in the assay at a concentration of 100 μM. The lower the IC50 value and the greater the percentage of inhibition, the more efficient the compound is at prevention of cell adhesion.

T1 sequence (P13612 34-1032): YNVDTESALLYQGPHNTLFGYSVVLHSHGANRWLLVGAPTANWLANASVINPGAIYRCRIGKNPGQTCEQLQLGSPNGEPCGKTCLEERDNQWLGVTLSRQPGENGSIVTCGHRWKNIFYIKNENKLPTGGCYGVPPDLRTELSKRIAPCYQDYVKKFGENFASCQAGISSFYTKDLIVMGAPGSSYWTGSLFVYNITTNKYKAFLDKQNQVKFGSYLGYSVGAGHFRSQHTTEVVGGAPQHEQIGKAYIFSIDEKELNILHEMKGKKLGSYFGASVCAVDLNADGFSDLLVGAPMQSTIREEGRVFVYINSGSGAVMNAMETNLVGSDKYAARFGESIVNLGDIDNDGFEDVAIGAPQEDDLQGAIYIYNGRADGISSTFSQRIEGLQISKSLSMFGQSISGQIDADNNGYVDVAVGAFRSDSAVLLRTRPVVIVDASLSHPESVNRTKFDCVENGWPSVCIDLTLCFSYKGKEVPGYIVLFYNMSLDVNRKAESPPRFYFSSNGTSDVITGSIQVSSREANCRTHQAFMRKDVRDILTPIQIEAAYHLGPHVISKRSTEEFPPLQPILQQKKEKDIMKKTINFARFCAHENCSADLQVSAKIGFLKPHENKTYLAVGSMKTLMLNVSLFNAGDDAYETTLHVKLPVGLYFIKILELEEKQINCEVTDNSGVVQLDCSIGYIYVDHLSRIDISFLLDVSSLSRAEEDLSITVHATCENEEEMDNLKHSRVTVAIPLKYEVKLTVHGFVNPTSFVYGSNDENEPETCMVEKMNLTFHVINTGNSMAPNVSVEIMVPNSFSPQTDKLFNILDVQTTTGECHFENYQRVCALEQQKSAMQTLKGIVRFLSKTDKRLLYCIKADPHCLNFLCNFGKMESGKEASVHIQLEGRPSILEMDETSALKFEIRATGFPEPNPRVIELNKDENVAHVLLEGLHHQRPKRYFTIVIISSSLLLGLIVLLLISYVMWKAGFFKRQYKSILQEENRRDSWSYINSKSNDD
T1 sequence (P05556 21-798): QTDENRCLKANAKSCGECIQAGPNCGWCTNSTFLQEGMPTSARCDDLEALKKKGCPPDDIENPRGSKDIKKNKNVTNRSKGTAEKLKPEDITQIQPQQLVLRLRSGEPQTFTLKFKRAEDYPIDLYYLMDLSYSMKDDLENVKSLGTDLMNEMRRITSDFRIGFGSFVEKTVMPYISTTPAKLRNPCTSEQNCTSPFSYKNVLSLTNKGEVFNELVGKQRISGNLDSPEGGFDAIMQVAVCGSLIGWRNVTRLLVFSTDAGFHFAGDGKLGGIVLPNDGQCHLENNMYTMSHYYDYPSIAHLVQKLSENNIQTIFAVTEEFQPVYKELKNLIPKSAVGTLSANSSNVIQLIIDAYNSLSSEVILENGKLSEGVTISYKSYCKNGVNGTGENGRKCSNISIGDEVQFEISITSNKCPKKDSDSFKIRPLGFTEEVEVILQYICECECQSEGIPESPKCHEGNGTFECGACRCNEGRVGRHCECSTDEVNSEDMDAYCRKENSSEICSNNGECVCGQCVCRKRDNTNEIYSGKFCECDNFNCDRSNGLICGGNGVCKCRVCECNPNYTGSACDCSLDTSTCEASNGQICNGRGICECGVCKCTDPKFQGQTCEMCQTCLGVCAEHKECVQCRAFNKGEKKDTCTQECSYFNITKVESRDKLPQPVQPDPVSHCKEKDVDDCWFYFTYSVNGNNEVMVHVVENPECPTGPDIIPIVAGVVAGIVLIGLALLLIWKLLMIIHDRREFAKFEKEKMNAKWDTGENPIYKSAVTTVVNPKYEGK

| SMILES | IC50 (Table 4) [nM] | other results |
| --- | --- | --- |
| CCCC[C@@H](C(=O)N[C@@H](CC(=O)O)c1ccc2c(c1)OCO2)N1CCCN(Cc2cccs2)C1=O [(3S)-3-(1,3-benzodioxol-5-yl)-3-(((2S)-2-(2-oxo-3-(2-thienylmethyl)tetrahydro-1(2H)-pyrimidinyl)hexanoyl)amino)propanoic acid] |  | inhibition at 100 µM (Table 2): 100%; IC50 (Table 2): 5 nM |
| CCCC[C@@H](C(=O)N[C@@H](CC(=O)O)c1ccc2c(c1)OCO2)n1cc(C)c(O)c(Cc2ccccc2)c1=O [(3S)-3-(1,3-benzodioxol-5-yl)-3-{[(2S)-2-(3-benzyl-4-hydroxy-5-methyl-2-oxopyridin-1(2H)-yl)hexanoyl]amino}propanoic acid] | 200 |  |
| CCCCC(C(=O)N[C@@H](CC(=O)O)c1cccc(OC(C)C)c1)n1cc(C)cc(Cc2c(Cl)cccc2Cl)c1=O (stereo partly drawn) [(3S)-3-({2-[3-(2,6-dichlorobenzyl)-5-methyl-2-oxopyridin-1(2H)-yl]hexanoyl}amino)-3-(3-isopropoxyphenyl)propanoic acid] | 275 |  |
| CCCCC(C(=O)N[C@@H](CC(=O)O)c1cccc(OC(C)C)c1)n1cc(C)cc(Cc2cccc(Cl)c2)c1=O (stereo partly drawn) [(3S)-3-({2-[3-(3-chlorobenzyl)-5-methyl-2-oxopyridin-1(2H)-yl]hexanoyl}amino)-3-(3-isopropoxyphenyl)propanoic acid] | 20 |  |
| O=C(O)C[C@H](NC(=O)Cn1cccc(Cc2ccccc2)c1=O)c1ccc2c(c1)OCO2 [(3S)-3-(1,3-benzodioxol-5-yl)-3-({2-[2-oxo-3-(phenylmethyl)-1(2H)-pyridinyl]acetyl}amino)propanoic acid] |  | IC50 (Table 3): 450 nM |
| CCCCOc1cccc([C@H](CC(=O)O)NC(=O)C(CCCC)n2cc(C)cc(Cc3ccccc3)c2=O)c1 (stereo partly drawn) [(3S)-3-{[2-(3-benzyl-5-methyl-2-oxopyridin-1(2H)-yl)hexanoyl]amino}-3-(3-butoxyphenyl)propanoic acid] | 45 |  |
| CCCCC(C(=O)N[C@@H](CC(=O)O)c1ccc2c(c1)OCO2)n1ccn(Cc2ccccc2)c1=O (stereo partly drawn) [(3S)-3-(1,3-benzodioxol-5-yl)-3-({2-[2-oxo-3-(phenylmethyl)-2,3-dihydro-1H-imidazol-1-yl]hexanoyl}amino)propanoic acid] |  | IC50 (Table 3): 60 nM |
| CCCCC(C(=O)N[C@@H](CC(=O)O)c1ccc(CC)cc1)n1cc(C)cc(Cc2ccccc2)c1=O (stereo partly drawn) [(3S)-3-(4-ethylphenyl)-3-({2-[5-methyl-2-oxo-3-(phenylmethyl)-1(2H)-pyridinyl]hexanoyl}amino)propanoic acid] | 40 |  |
| CCCCC(C(=O)N[C@@H](CC(=O)O)c1cccc(C(F)(F)F)c1)n1cc(C)cc(Cc2ccccc2)c1=O (stereo partly drawn) [(3S)-3-{[2-(3-benzyl-5-methyl-2-oxopyridin-1(2H)-yl)hexanoyl]amino}-3-[3-(trifluoromethyl)phenyl]propanoic acid] | 250 |  |
| CCCCC(C(=O)N[C@@H](CC(=O)O)c1cccc(OC(C)C)c1)n1cc(C)cc(Cc2ccccc2)c1=O (stereo partly drawn) [(3S)-3-{[2-(3-benzyl-5-methyl-2-oxopyridin-1(2H)-yl)hexanoyl]amino}-3-(3-isopropoxyphenyl)propanoic acid] | 4 |  |
| CCCCC(C(=O)N[C@@H](CC(=O)O)c1cccc(CC(C)C)c1)n1cc(C)cc(Cc2ccccc2)c1=O (stereo partly drawn) [(3S)-3-({2-[5-methyl-2-oxo-3-(phenylmethyl)-1(2H)-pyridinyl]hexanoyl}amino)-3-[3-(2-methylpropyl)phenyl]propanoic acid] | 10 |  |
| CCCCC(C(=O)N[C@@H](CC(=O)O)c1ccc2c(c1)OCO2)n1cc(C)cc(Cc2ccc(C)cc2)c1=O (mixture of isomers) [Compound 16, (3S)-3-(1,3-benzodioxol-5-yl)-3-((2R,S)-2-(3-(4-methylbenzyl)-5-methyl-2-oxo-1(2H)-pyridinyl)hexanoylamino)propanoic acid] |  | IC50 (Table 1): 35 nM |
| CCCC(C(=O)N[C@@H](CC(=O)O)c1ccc2c(c1)OCO2)n1cccc(Cc2ccccc2)c1=O (stereo partly drawn) [(3S)-3-(1,3-benzodioxol-5-yl)-3-({2-[2-oxo-3-(phenylmethyl)-1(2H)-pyridinyl]pentanoyl}amino)propanoic acid] |  | IC50 (Table 3): 60 nM |
| CCCCC(C(=O)N[C@@H](CC(=O)O)c1ccc(C(C)C)cc1)n1cc(C)cc(Cc2ccccc2)c1=O (stereo partly drawn) [(3S)-3-[4-(1-methylethyl)phenyl]-3-({2-[5-methyl-2-oxo-3-(phenylmethyl)-1(2H)-pyridinyl]hexanoyl}amino)propanoic acid] | 160 |  |
| CCCCC(C(=O)N[C@@H](CC(=O)O)c1cccc(OC(C)C)c1)n1cc(C)cc(Cc2cccc3ccccc23)c1=O (stereo partly drawn) [(3S)-3-{3-[(1-methylethyl)oxy]phenyl}-3-({2-[5-methyl-3-(1-naphthalenylmethyl)-2-oxo-1(2H)-pyridinyl]hexanoyl}amino)propanoic acid] | 67 |  |
| CCCCC(C(=O)N[C@@H](CC(=O)O)c1ccc2c(c1)OCO2)n1cc(C)cc(Cc2ccc(OC)cc2)c1=O (mixture of isomers) [Compound 15, (3S)-3-(1,3-benzodioxol-5-yl)-3-((2R,S)-2-(3-(4-methoxybenzyl)-5-methyl-2-oxo-1(2H)-pyridinyl)hexanoylamino)propanoic acid] |  | IC50 (Table 1): 30 nM |
| CCCCC(C(=O)N[C@@H](CC(=O)O)c1cc(C)ccc1C)n1cc(C)cc(Cc2ccccc2)c1=O (stereo partly drawn) [(3S)-3-{[2-(3-benzyl-5-methyl-2-oxopyridin-1(2H)-yl)hexanoyl]amino}-3-(2,5-dimethylphenyl)propanoic acid] | 300 |  |
| CCCCC(C(=O)N[C@@H](CC(=O)O)c1ccc2c(c1)OCO2)n1cccc(Cc2ccccc2)c1=O (stereo partly drawn) [(3S)-3-(1,3-benzodioxol-5-yl)-3-{[2-(3-benzyl-2-oxopyridin-1(2H)-yl)hexanoyl]amino}propanoic acid] | 30 |  |
| CCCCC(C(=O)N[C@@H](CC(=O)O)c1ccc2c(c1)CCC2)n1cc(C)cc(Cc2ccccc2)c1=O (stereo partly drawn) [(3S)-3-(2,3-dihydro-1H-inden-5-yl)-3-({2-[5-methyl-2-oxo-3-(phenylmethyl)-1(2H)-pyridinyl]hexanoyl}amino)propanoic acid] | 63 |  |
| CCCCC(C(=O)N[C@@H](CC(=O)O)c1cccc(F)c1)n1cc(C)cc(Cc2ccccc2)c1=O (stereo partly drawn) [(3S)-3-(3-fluorophenyl)-3-({2-[5-methyl-2-oxo-3-(phenylmethyl)-1(2H)-pyridinyl]hexanoyl}amino)propanoic acid] | 13 |  |
| CCCCC(C(=O)N[C@@H](CC(=O)O)c1ccc2c(c1)OCO2)n1cc(C)cc(Cc2ccccc2)c1=O (mixture of isomers) [Compound 8, (3S)-3-(1,3-benzodioxol-5-yl)-3-((2R,S)-2-(3-benzyl-5-methyl-2-oxo-1(2H)-pyridinyl)hexanoylamino)propanoic acid] |  | IC50 (Table 1): 7 nM |
| CCCC[C@@H](C(=O)N[C@@H](CC(=O)O)c1cc(OC)cc(OC)c1)n1cc(C)cc(Cc2ccccc2)c1=O [(3S)-3-{[(2S)-2-(3-benzyl-5-methyl-2-oxopyridin-1(2H)-yl)hexanoyl]amino}-3-(3,5-dimethoxyphenyl)propanoic acid] | 10 |  |
| CCCCC(C(=O)N[C@@H](CC(=O)O)c1cccc(N(CC)CC)c1)n1cc(C)cc(Cc2ccccc2)c1=O (stereo partly drawn) [(3S)-3-[3-(diethylamino)phenyl]-3-({2-[5-methyl-2-oxo-3-{phenylmethyl)-1(2H)-pyridinyl]hexanoyl}amino)propanoic acid] | 10 |  |
| CCCC[C@@H](C(=O)N[C@@H](CC(=O)O)c1ccc2c(c1)OCO2)N1CCN(Cc2cccs2)C1=O [(3S)-3-(1,3-benzodioxol-5-yl)-3-({(2S)-2-[2-oxo-3-(2-thienylmethyl)-1-imidazolidinyl]hexanoyl}amino)propanoic acid] |  | inhibition at 100 µM (Table 2): 100%; IC50 (Table 2): 150 nM |
| CCCCC(C(=O)N[C@@H](CC(=O)O)c1ccccc1)n1cc(C)cc(Cc2ccccc2C)c1=O (stereo partly drawn) [(3S)-3-({2-[5-methyl-3-[(2-methylphenyl)methyl]-2-oxo-1(2H)-pyridinyl]hexanoyl}amino)-3-phenylpropanoic acid] | 25 |  |
| CCCC[C@@H](C(=O)N[C@@H](CC(=O)O)c1ccc(-c2c(OC)cccc2OC)cc1)n1cc(C)cc(Cc2ccccc2)c1=O [(3S)-3-{[(2S)-2-(3-benzyl-5-methyl-2-oxopyridin-1(2H)-yl)hexanoyl]amino}-3-(2′,6′-dimethoxy-1,1′-biphenyl-4-yl)propanoic acid] | 200 |  |
| CCCCC(C(=O)N[C@@H](CC(=O)O)c1cc(OC)c(OC)c(OC)c1)n1cc(C)cc(Cc2ccccc2)c1=O (stereo partly drawn) [(3S)-3-{]2-(3-benzyl-5-methyl-2-oxopyridin-1(2H)-yl)hexanoyl]amino}-3-(3,4,5-trimethoxyphenyl)propanoic acid] | 33 |  |
| CCCCC(C(=O)N[C@@H](CC(=O)O)c1ccc2c(c1)CCC2)n1cc(C)cc(Cc2ccc3ccccc3c2)c1=O (stereo partly drawn) [(3S)-3-(2,3-dihydro-1H-inden-5-yl)-3-({2-[5-methyl-3-(2-naphthalenylmethyl)-2-oxo-1(2H)-pyridinyl]hexanoyl}amino)propanoic acid] | 283 |  |
| CCCCC(C(=O)N[C@@H](C(=O)O)c1ccccc1)n1cc(C)cc(Cc2ccccc2)c1=O (stereo partly drawn) [(2R)-2-({2-[5-methyl-2-oxo-3-(phenylmethyl)-1(2H)-pyridinyl]hexanoyl}amino)-2-phenylethanoic acid] | > 10000 |  |
